Targets include SYK (Homo sapiens, UniProt P43405); FGR (Homo sapiens, UniProt P09769); MAP4K5 (Homo sapiens, UniProt Q9Y4K4); EPHA3 (Homo sapiens, UniProt P29320); MYLK2 (Homo sapiens, UniProt Q9H1R3); CSNK1A1 (Homo sapiens, UniProt P48729); EPHB1 (Homo sapiens, UniProt P54762); MAP3K3 (Homo sapiens, UniProt Q99759); PKN1 (Homo sapiens, UniProt Q16512); HIPK2 (Homo sapiens, UniProt Q9H2X6); MARK1 (Homo sapiens, UniProt Q9P0L2); PIK3CA(M1043I) (Homo sapiens, UniProt P42336, M1043I); RIOK2 (Homo sapiens, UniProt Q9BVS4); ACVR2A (Homo sapiens, UniProt P27037).

Assay in all cases: biochemical
Holding throughout (design): DiscoverX KINOMEscan scanMAX competition binding panel, single concentration, percent of control; remaining binding: dose or concentration left out as unconfirmed
Common to all, as to conditions: KINOMEscan binding, percent of control; read-out: Table S4_SCANMAX REPORT - related to Fig. 1 / Percent Control

A further experiment addresses T1, YANK2 (Homo sapiens, UniProt Q9NY57).
T1 construct: gene STK32B

For the next experiment, the target named is T2, TAK1 (Homo sapiens, UniProt O43318).
T2 construct: gene MAP3K7

For another experiment, the target named is T3, PKAC-alpha (Homo sapiens, UniProt P17612).
T3 construct: gene PRKACA

For another experiment, the target named is T4, p38-gamma (Homo sapiens, UniProt P53778).
T4 construct: gene MAPK12

The next experiment addresses T5, LZK (Homo sapiens, UniProt O43283).
T5 construct: gene MAP3K13

Sequence of HIPK2 (Q9H2X6 whole entry): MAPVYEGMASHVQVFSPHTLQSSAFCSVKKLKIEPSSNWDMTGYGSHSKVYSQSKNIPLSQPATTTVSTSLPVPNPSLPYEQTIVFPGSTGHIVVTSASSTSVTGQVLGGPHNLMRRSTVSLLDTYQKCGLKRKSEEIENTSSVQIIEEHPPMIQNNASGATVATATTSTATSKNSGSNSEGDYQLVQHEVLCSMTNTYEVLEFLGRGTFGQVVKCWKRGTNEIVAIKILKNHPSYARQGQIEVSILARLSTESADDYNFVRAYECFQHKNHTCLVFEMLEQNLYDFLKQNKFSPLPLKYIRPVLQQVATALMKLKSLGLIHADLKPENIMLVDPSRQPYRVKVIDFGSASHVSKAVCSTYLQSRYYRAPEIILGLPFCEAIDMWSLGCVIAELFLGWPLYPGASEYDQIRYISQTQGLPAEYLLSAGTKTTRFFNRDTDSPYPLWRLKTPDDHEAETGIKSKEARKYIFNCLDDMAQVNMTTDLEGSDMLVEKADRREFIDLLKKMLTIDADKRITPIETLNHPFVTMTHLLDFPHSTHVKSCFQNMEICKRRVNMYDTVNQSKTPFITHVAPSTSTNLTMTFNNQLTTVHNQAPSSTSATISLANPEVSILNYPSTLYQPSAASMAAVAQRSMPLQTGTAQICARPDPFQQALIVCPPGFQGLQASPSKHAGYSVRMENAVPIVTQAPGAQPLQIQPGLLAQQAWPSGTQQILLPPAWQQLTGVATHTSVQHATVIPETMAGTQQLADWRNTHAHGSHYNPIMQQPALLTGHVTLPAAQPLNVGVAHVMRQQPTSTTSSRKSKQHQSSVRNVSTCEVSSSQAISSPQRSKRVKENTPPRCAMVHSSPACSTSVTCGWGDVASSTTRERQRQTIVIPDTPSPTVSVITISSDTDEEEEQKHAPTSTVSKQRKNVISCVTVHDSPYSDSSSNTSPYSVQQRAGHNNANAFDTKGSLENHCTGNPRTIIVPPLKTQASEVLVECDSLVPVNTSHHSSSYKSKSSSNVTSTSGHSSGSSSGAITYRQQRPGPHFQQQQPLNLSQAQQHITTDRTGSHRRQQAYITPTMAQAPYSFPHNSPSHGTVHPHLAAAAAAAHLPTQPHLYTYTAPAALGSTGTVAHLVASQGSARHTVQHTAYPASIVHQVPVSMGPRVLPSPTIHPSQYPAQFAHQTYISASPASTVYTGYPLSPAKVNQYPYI
Sequence of ACVR2A (P27037 whole entry): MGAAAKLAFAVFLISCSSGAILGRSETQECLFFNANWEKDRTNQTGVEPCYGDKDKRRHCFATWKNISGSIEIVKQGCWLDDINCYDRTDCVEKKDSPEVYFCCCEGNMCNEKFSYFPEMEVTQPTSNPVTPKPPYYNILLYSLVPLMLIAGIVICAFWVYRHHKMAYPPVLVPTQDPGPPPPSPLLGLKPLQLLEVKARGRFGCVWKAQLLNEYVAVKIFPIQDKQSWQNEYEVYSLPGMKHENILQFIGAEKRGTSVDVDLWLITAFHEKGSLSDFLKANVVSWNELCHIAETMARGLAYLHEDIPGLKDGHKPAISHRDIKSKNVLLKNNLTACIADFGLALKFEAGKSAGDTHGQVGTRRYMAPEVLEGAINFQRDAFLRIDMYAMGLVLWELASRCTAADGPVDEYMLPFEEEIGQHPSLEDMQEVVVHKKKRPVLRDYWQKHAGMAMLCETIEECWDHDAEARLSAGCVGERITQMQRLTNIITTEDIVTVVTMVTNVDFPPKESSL
Sequence of CSNK1A1 (P48729 whole entry): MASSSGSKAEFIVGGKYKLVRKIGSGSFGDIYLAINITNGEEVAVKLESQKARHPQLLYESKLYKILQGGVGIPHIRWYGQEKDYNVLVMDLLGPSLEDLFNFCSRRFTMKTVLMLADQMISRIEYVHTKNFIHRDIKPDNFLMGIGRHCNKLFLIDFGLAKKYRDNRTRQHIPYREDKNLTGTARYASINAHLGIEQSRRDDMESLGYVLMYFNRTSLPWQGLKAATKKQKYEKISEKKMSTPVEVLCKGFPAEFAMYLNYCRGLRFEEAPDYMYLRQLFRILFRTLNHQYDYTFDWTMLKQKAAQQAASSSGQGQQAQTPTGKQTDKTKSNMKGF
T1 sequence (Q9NY57 whole entry): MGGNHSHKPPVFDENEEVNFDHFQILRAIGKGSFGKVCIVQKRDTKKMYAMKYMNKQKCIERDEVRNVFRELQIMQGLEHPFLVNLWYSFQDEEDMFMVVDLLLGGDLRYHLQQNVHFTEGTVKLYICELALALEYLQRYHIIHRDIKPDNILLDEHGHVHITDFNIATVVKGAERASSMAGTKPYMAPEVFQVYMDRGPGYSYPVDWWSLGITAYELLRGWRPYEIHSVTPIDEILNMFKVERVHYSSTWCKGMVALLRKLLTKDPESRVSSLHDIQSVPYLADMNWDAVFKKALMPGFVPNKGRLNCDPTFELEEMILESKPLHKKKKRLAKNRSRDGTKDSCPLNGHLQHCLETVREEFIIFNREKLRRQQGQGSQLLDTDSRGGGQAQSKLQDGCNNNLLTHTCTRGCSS
Sequence of PKN1 (Q16512 whole entry): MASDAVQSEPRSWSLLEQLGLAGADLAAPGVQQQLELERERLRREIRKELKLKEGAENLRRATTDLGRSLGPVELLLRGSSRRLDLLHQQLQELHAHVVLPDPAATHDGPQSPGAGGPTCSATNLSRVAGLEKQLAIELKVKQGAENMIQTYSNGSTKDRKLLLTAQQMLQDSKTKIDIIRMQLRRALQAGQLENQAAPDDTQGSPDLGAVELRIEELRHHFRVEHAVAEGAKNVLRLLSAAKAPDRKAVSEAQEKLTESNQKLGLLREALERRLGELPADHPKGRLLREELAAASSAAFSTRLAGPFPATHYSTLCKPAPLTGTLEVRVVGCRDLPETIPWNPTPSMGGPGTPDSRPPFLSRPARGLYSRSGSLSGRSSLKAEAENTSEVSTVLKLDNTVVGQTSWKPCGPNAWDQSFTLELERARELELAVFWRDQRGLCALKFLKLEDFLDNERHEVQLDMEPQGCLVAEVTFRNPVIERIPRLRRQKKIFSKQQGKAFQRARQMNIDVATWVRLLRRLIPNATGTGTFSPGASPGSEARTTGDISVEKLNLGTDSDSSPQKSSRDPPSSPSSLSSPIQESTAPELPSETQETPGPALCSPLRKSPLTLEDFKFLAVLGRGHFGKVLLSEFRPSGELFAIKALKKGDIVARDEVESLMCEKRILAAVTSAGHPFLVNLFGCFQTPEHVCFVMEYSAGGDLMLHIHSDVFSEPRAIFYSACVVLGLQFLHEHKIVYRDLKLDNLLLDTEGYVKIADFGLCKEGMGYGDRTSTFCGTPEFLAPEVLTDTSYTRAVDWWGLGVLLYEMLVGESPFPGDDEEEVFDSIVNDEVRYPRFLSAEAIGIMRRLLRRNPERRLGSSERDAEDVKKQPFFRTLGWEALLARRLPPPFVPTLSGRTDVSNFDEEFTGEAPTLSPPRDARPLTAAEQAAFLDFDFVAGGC
Sequence of FGR (P09769 whole entry): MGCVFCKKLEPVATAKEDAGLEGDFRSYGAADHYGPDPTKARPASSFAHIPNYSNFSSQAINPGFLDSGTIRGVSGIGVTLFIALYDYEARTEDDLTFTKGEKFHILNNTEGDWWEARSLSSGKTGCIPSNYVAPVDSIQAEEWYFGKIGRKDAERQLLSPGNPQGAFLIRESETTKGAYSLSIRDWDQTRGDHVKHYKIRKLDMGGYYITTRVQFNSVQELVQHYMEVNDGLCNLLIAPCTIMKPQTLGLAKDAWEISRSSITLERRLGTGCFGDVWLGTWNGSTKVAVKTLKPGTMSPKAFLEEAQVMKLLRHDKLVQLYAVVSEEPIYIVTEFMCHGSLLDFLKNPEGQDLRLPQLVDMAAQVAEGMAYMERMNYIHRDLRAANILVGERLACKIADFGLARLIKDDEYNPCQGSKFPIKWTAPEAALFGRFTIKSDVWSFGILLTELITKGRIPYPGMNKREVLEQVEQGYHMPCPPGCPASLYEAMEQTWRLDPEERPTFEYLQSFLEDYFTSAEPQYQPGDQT
Sequence of MAP4K5 (Q9Y4K4 whole entry): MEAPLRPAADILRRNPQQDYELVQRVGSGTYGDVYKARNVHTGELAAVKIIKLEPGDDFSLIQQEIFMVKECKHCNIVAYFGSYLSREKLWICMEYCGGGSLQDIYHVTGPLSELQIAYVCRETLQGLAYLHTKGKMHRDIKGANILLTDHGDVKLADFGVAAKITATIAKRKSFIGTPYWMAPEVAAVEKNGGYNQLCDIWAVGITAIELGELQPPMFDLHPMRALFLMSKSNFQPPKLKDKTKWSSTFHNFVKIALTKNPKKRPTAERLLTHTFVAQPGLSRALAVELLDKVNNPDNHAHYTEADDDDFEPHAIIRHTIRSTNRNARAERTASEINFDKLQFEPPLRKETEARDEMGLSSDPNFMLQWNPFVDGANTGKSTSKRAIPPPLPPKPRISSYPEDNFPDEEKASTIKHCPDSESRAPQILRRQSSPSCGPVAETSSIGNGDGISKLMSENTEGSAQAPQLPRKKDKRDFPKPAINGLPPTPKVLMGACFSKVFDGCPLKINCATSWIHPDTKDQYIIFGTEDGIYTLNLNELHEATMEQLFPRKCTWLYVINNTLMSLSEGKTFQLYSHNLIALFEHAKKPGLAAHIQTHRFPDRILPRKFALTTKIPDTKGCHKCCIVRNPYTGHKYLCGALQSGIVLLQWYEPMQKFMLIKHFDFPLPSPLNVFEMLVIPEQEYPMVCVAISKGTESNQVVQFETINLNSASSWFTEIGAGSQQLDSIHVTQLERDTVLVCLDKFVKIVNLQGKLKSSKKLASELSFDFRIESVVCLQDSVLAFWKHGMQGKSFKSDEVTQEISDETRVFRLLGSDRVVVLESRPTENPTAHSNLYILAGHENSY

On to `c1ccc2c(c1)Sc1ccccc1N2CCN1CCOCC1` [J54], for which the remaining binding at SYK amounted to 100%; on YANK2 it was 100%; on FGR, 100%; on MAP4K5 it was 68%; at TAK1 it was 97%; on PKAC-alpha it was 98%. Further, the remaining binding on EPHA3 amounted to 99%; at p38-gamma it was 58%; at LZK, 92%; on MYLK2, 74%; on CSNK1A1 it was 100%; at EPHB1, 100%. In addition, the remaining binding on MAP3K3 came to 100%; at PKN1, 100%; on HIPK2 it was 100%; at MARK1, 94%; at PIK3CA(M1043I), 98%; at RIOK2, 100%. For the same compound, the remaining binding at ACVR2A turned out to be 86%.

The record behind these values is article PMC7486443, “Generation of Phenothiazine with Potent Anti-TLK1 Activity for Prostate Cancer Therapy” (iScience, 2020).
